The values below come from patent US20110301146A1 (ONCOTHERAPY SCIENCE, INC., priority 2008, published 2011).

SMILES strings stand for the structures. pIC50: −log10 of the molar value.

The target in this test is T1, GSK-3beta (Homo sapiens, UniProt P49841).
T1 construct: purchased Invitrogen
T1 sequence (P49841 whole entry): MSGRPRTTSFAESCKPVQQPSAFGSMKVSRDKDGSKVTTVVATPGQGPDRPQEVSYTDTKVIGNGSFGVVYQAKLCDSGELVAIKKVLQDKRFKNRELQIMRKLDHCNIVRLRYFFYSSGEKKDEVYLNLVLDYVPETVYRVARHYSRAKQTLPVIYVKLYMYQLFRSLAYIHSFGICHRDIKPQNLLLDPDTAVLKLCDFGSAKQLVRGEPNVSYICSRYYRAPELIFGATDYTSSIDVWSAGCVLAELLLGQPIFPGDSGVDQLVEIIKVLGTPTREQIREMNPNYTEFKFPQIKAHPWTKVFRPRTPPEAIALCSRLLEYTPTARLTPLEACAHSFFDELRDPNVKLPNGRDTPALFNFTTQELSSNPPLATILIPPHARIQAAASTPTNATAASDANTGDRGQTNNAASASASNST
The test can be described thus: Z'-LYTE kinase assay (FRET, SER/THR 9 peptide). Type of test: biochemical. Conditions: 0.04 ng/micro-l GSK-3beta (Invitrogen), 2 micro-M SER/THR 9 peptide, 15 micro-M ATP, 1 hour at room temperature, 1% DMSO. As for the experimental part:
The Z′-LYTE kinase assay kit employs a fluorescence resonance energy transfer (FRET) between two fluorophores, coumarin and fluorescein, attached to each end of a substrate peptide.
For 0% phosphorylation control, ATP was omitted from the reaction mixture. For 100% phosphorylation control, SER/THR 9 phosphopeptide was used in place of the SER/THR 9 peptide. Following 1 hour incubation at room temperature, the reaction was stopped by the addition of half assay volume of development solution and further incubated for 1 hour at room temperature. […] The extent of phosphorylation was determined according to the 0% and 100% phosphorylation control samples using the following equation: […]
IC50 values were calculated by nonlinear four parameter fit using SigmaPlot, version 10.0 (Systat Software, Inc.).
A word on the pIC50: it is the IC50 on a negative log10 scale, so that one unit is a factor of ten. As for `O=C(NCC1CNC1)c1ccc(O)c2[nH]c(C3CC3)nc12` [Example 13, N-(azetidin-3-ylmethyl)-2-cyclopropyl-4-hydroxy-1H-benzo[d]imidazole-7-carboxamide], the pIC50 was 6.85.

Consider `O=C(NCC1CCCNC1)c1ccc(O)c2[nH]c(C3CC4CCC3C4)nc12` (stereo not shown) [Example 48, 2-(Bicyclo[2.2.1]heptan-2-yl)-7-hydroxy-N-(piperidin-3-ylmethyl)-1H-benzo[d]imidazole-4-carboxamide], for which the pIC50 was 7.17.

The compound `O=C(NCC1CCCCN1)c1ccc(O)c2[nH]c(C3CC3)nc12` (stereo not shown) [Example 7, 2-Cyclopropyl-4-hydroxy-N-(piperidin-2-ylmethyl)-1H-benzo[d]imidazole-7-carboxamide] showed a pIC50 of 7.00.

Turning to `CC(C)(C)OC(=O)N1CCC[C@H](NC(=O)c2ccc(O)c3[nH]c(-c4ccc(Br)s4)nc23)C1` [Example 50, (S)-tert-Butyl 3-(2-(5-bromothiophen-2-yl)-7-hydroxy-1H-benzo[d]imidazole-4-carboxamido)piperidine-1-carboxylate], the pIC50 is 5.47.
